SMILES strings stand for the structures. Where two headings read alike, the source gives them in different places.

The values that follow come from paper PMC6186498 (Toxicology, 2018).

One data set concerns kidney. The settings on record: cited from earlier work.
The conditions of data set [1]: cited from earlier work.
The conditions of data set [2]: cited from earlier work. This is another data set of the same source.
For data set [3] the following is noted: human, cited from earlier work.
For data set [4] the following is noted: cited from earlier work. The source holds these as a separate data set.
The mark [5] stands for this setting: 100 mg/kg oral, mice, PBPK model estimate, ref Chiu et al 2011.
Setting [6] is: 300 mg/kg oral, mice C57BL/6J, M, ref Cichocki et al 2017.
The mark [7] stands for this setting: 10 ppm inhalation, mice, PBPK model estimate, ref Chiu et al 2011.
Where [8] appears, read: 100 mg/kg oral, PBPK model estimate, ref Chiu et al 2011.
[9] abbreviates: 10 ppm inhalation, PBPK model estimate, ref Chiu et al 2011.
The mark [10] stands for this setting: mean ± SD, average of all strains, single oral dose 6 mmole/kg.
Where [11] appears, read: 100 mg/kg oral, rat, PBPK model estimate, ref Chiu et al 2011.
[12] abbreviates: 10 ppm inhalation, rat, PBPK model estimate, ref Chiu et al 2011.

In the case of `N[C@@H](CSC(Cl)=CCl)C(=O)O` [DCVC, S-(1,2-dichlorovinyl)-cysteine], the “lowest dose with some adverse kidney effects observable” value in the data set with kidney (ref Shirai et al. 2012) was 1 mg/kg.

On to `OCC(Cl)(Cl)Cl` [TCOH, trichloroethanol], for which the “AUC0–36 of TCOH compared to that of TCA, brain” value (TCE-treated mice, brain) is 22.7–53.1%. For the same molecule, the “AUC0–36 of TCOH compared to that of TCA, kidney” value (TCE-treated mice, kidney) is on record as 266–322%. The “tissue in which TCOH is most abundant” value (TCE-treated mice, liver, kidney, brain, lung, serum examined) is given as “most abundant in kidney”. The “AUC0–36 of TCOH compared to that of TCA, lung” value (TCE-treated mice, lung) is on record as 49.8–68.7%. Moreover, under “TCE-treated mice, serum”, the “AUC0–36 of TCOH compared to that of TCA, serum” value was 35.7–60%.

`ClC(Cl)=C(Cl)Cl` [PCE, tetrachloroethylene]: in data set [1] (ref Guha et al. 2012), the “carcinogenicity classification by IARC” value is reported as “probably carcinogenic to humans”. The “carcinogenicity classification by US EPA” value in data set [1] (ref U.S. EPA 2011a, b) is recorded as “likely to be a human carcinogen”. Further, the “GSH conjugation (%)” value was 0.07% in data set [2] (setting [5]); 0.79% in data set [2] (setting [6]); 0.02% in data set [2] (setting [7]); 18% in data set [3] (setting [8]); 9.4% in data set [3] (setting [9]); 0.6% in data set [4] (setting [11]). In addition, the “GSH conjugation (%)” value in data set [4] (setting [12]) is on record as 0.2%. The “Oxidation to GSH” value in data set [2] (setting [5]) is 500; in data set [2] (setting [6]) it was 7.5; in data set [2] (setting [7]), 600; in data set [3] (setting [8]), 0.1; in data set [3] (10 ppm inhalation, M&F, ref Volkel et al 1998) it was 107.7; in data set [3] (setting [9]), 0.1. Further, the “Oxidation to GSH” value is given as 89.1 in data set [3] (20 ppm inhalation, M&F, ref Volkel et al 1998); 96.3 in data set [3] (40 ppm inhalation, M&F, ref Volkel et al 1998); 14.8 in data set [4] (setting [11]); 623.6 in data set [4] (10 ppm inhalation, rat Wistar, M&F, ref Volkel et al 1998); 19.5 in data set [4] (setting [12]); 540.6 in data set [4] (20 ppm inhalation, rat Wistar, M&F, ref Volkel et al 1998). Moreover, the “Oxidation to GSH” value in data set [4] (40 ppm inhalation, rat Wistar, M&F, ref Volkel et al 1998) was 316.4. Further, the “TCA (%), percentage of administered dose excreted in urine” value in data set [2] (setting [5]) is on record as 35%; in data set [2] (setting [6]), 5.9%; in data set [2] (setting [7]), 12%; in data set [3] (setting [8]), 1.8%; in data set [3] (1 ppm inhalation, M, ref Chiu et al 2006), 0.2–0.8%; in data set [3] (setting [9]) it was 0.98%. Besides, the “TCA (%), percentage of administered dose excreted in urine” value in data set [3] (72 ppm inhalation, M, ref Monster 1979) is 2%; in data set [4] (setting [11]) it was 8.9%; in data set [4] (setting [12]), 3.9%. Besides, the “inter-strain variability of TCA levels in liver, GSD” value in data set [2] (Collaborative Cross mouse population, single oral dose of PCE, ref Cichocki et al. 2017b) is 1.64. Also, the “exhalation fraction of PCE” value in data set [2] (mice orally dosed with 500 mg/kg 14C-labelled PCE, ref Schumann et al. 1980) was 82.6%. The “flux through oxidation metabolism pathway over that through conjugation” value (across all mouse strains examined) is reported as 26–34 fold. The “overall flux of glutathione conjugation expressed as dose” value (after equimolar treatment of TCE or PCE) lay within 2.9 to 4.5 mg/kg. Moreover, the “First order rate constant, Elimination T/PCE→” value under setting [10] turned out to be 0.17 ± 0.04 h⁻¹. In addition, the “First order rate constant, GSH conjugation T/PCE→D/TCVG” value under setting [10] is “(460±230)*10^−6 h^−1”. In addition, under setting [10], the “First order rate constant, Oxidation T/PCE→TCA” value was found to be 0.014 ± 0.003 h⁻¹. Moreover, where the note is “range given for TCE and PCE together, approximately”, the “yield through glutathione conjugation pathway as % of that through oxidative pathway” value turned out to be 0.033%−3.3. Besides, the “portion of the parent compound that undergoes metabolism” value (range over strains) is 6.6%–9.7. The “estimated fraction of the reactive species formation from cysteine conjugates” value (range over strains, model estimate) is 46.7% to 52.6. Also, the “fraction of the total administered dose remaining unmetabolized until excretion” value (range over strains, model estimate at steady state) is on record as 90.3% to 93.5.

In the case of `N[C@@H](CSC(Cl)=C(Cl)Cl)C(=O)O` [TCVC, S-(1,2,2-trichlorovinyl)-L-cysteine], the “doses at which most studies reported kidney effects” value with kidney (directly administered cysteine conjugates, acute, sub-acute and sub-chronic exposure, ref Birner et al. 1997, Shirai et al. 2012, Vaidya et al. 2003) is listed as “above 10 mg/kg”. The “comparative nephrotoxicity of TCVC and DCVC” value in the data set on kidney (equimolar doses compared, ref Birner et al. 1997) was “more nephrotoxic than DCVC”.
